Results taken from US9187497B2, “Substituted pyrido[3,2-e]pyrrolo[1,2-a]pyrazines as inhibitors of poly(ADP-ribose)polymerase (PARP)” (Takeda Phamaceutical Company Limited, priority 2009, dated 2015).

What follows are molecules tested on Jurkat cell line (assay: PARP cellular chemopotentiation assay (MTS cell viability with and without TMZ)). Conditions: ratio of EC50 for inhibition of cell viability without and with 100 μM TMZ; Jurkat cells, 96 hours of treatment.
Format: cell-based
Procedure: Potentiation Factor (PF50) Determination from PARP Cellular Chemopotentiation Assay
Jurkat cell line was maintained according to the supplier (American Type Culture Collection (Rockville, Md.)). Cells were seeded in 96-well tissue culture microplates at 10,000 cells per well and cultured for 24 hours prior to addition of compounds, TMZ (Temozolomide) or DMSO (dimethylsulfoxide) vehicle. After 96 hours of treatment, the conversion of MTS ([3-(4,5-dimethylthiazol-2-yl)-5-(3-carboxymethoxyphenyl)-2-(4-sulfophenyl)-2H-tetrazolium, inner salt], Promega, Madison, Wis.) by metabolically active cells was determined through measuring the OD490 nm with a Spectramax microplate reader (Molecular Devices, San Diego, Calif.). To generate concentration-response curves, cells were treated in duplicate with a range of serial compound dilutions (final DMSO concentration was 0.5%) in the absence or presence of 100 μM TMZ chemoreagent. The percentage of viable cells per well was calculated by correction for background and normalizing against DMSO-treated cells. EC50 values for inhibition of cell viability were calculated using XLfit4 MicroSoft Excel curve-fitting software. Chemopotentiation factor PF50 was calculated as the ratio of EC50 values of cells co-treated without and with TMZ, respectively.
`O=C1Nc2cc(CN3CC=C(c4ccc(Cl)cc4)CC3)cnc2N2CCSC[C@@H]12` [Compound 91, (R)-3-((4-(4-chlorophenyl)-5,6-dihydropyridin-1(2H)-yl)methyl)-6a,7,9,10-tetrahydropyrido[3,2-e][1,4]thiazino[4,3-a]pyrazin-6(5H)-one] was tested, and the PF50 was >2000. In the case of `O=C1Nc2cc(CN3CCN(c4ccc(Cl)cc4)CC3)cnc2N2CCOCC12` (stereo not shown) [Compound 93, 3-((4-(4-chlorophenyl)piperazin-1-yl)methyl)-6a,7,9,10-tetrahydro-[1,4]oxazino[4,3-a]pyrido[3,2-e]pyrazin-6(5H)-one], the PF50 is reported as “≧0”. For `CN1CCN2c3ncc(CN4CCN(c5ccc(Cl)cc5)CC4)cc3NC(=O)C2C1` (stereo not shown) [Compound 97, 7-[4-(4-Chloro-phenyl)-piperazin-1-ylmethyl]-2-methyl-1,3,4,10a-tetrahydro-2H,9H-2,4a,5,9-tetraaza-phenanthren-10-one], the PF50 was “≧0”. In the case of `CNC(=O)c1ccc(N2CCN(Cc3cnc4c(c3)NC(=O)[C@@H]3CSCCN43)CC2)cc1` [Compound 98, (R)—N-methyl-4-(4-((6-oxo-5,6,6a,7,9,10-hexahydropyrido[3,2-e][1,4]thiazino[4,3-a]pyrazin-3-yl)methyl)piperazin-1-yl)benzamide], the PF50 is reported as >5000. With `O=C(NC1CC1)c1ccc(N2CCN(Cc3cnc4c(c3)NC(=O)[C@@H]3CSCCN43)CC2)cc1` [Compound 99, (R)—N-cyclopropyl-4-(4-((6-oxo-5,6,6a,7,9,10-hexahydropyrido[3,2-e][1,4]thiazino[4,3-a]pyrazin-3-yl)methyl)piperazin-1-yl)benzamide] the PF50 was >5000. `N#Cc1ccc(N2CCN(Cc3cnc4c(c3)NC(=O)C3COCCN43)CC2)nc1` (stereo not shown) [Compound 100, 6-(4-((6-oxo-5,6,6a,7,9,10-hexahydro-[1,4]oxazino[4,3-a]pyrido[3,2-e]pyrazin-3-yl)methyl)piperazin-1-yl)nicotinonitrile] was tested, and the PF50 was >10.

Each molecule was assayed against T1, PARP (Homo sapiens, UniProt P09874) (assay: PARP ELISA colorimetric assay of inhibition of PARP catalytic activity (IC50)). Conditions: pIC50=-log(IC50), IC50 in molar concentration; ELISA-based PARP kit, 10 minutes of catalysis.
T1 construct: purchased Trevigen 4684-096-01 (enzyme); kit 4684-096-K HT
T1 sequence (P09874 whole entry): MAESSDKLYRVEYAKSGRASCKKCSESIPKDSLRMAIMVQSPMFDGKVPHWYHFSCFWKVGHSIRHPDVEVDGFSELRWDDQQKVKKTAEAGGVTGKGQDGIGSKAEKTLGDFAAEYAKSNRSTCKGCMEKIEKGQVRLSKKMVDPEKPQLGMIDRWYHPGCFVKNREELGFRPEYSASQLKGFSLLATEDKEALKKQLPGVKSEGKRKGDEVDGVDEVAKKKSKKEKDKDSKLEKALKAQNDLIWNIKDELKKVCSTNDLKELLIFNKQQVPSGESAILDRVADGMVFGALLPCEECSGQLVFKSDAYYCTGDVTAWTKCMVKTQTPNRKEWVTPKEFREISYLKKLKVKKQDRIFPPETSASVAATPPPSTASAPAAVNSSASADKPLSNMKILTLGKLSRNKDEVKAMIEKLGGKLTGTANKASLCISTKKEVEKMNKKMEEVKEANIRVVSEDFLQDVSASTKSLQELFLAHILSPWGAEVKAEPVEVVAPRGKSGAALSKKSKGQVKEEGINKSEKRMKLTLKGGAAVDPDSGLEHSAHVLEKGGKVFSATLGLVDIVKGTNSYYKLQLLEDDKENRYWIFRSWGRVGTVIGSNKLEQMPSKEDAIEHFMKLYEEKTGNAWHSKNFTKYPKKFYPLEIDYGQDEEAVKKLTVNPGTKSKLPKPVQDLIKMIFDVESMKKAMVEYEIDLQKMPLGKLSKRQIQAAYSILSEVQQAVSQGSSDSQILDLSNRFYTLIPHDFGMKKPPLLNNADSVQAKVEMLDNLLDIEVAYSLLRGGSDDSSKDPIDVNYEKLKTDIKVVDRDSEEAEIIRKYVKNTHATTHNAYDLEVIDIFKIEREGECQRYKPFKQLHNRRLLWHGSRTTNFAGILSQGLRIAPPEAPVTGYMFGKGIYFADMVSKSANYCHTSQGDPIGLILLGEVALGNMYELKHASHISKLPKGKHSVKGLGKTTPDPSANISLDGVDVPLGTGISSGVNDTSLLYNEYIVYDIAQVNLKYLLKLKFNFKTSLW
Format: biochemical
Procedure: Inhibition Constant (IC50) from PARP ELISA
Inhibition of PARP catalytic activity was determined by use of an ELISA-based colorimetric PARP/Apoptosis Assay kit (part number 4684-096-K HT, Trevigen). To each histone coated well in the 96-well plate supplied by the manufacturer (part number 4677-096-P) is added 39 μl of PARP buffer (part number 4671-096-02) and 1 μl of test compound dissolved in DMSO (diluted serially 3-fold 11 times). After mixing, 5 μl of 0.1 nM PARP (part number 4684-096-01) is added and the solution allowed to stand at ambient temperature for 10 minutes. PARP catalysis is initiated with the addition of 5 μl of 100 μM β-nicotinamide adenine dinucleotide (NAD+) (part number 4684-096-02) with activated DNA (part number 4671-096-06). After 10 minutes of catalysis the reaction is quenched by solvent aspiration followed by irrigation of the assay wells 4 times with phosphate buffered saline (PBS) containing 0.1% t-Octylphenoxypolyethoxyethanol (Triton® X-100). Mouse Anti-poly ADP ribose (PAR) monoclonal antibody, goat antimouse immunoglobulin G (IgG)-horse radish peroxidase (HRP) conjugate and HRP substrate are added according to the manufacture's specifications to generate a colorimetric signal proportional to PARP catalytic activity. An IC50 for the test compound is calculated from the equation Absorbance=(Amax−background)/(1+([cmpd]/IC50)^n)+background fit to the 12 point test compound concentration gradient via nonlinear least squares.
In the case of `CC(C)N1CC(=O)Nc2cc(CN3CCC(c4ccc(Cl)cc4)CC3)cnc21` [Compound 96, 7-((4-(4-chlorophenyl)piperidin-1-yl)methyl)-4-isopropyl-3,4-dihydropyrido[2,3-b]pyrazin-2(1H)-one], the IC50 is reported as ≥ 50.1 nM. For `CCOC(=O)c1ccc(N2CCN(Cc3cnc4c(c3)NC(=O)[C@@H]3CCCN43)CC2)nc1` [Compound 121, (S)-ethyl 6-(4-((6-oxo-5,6,6a,7,8,9-hexahydropyrido[3,2-e]pyrrolo[1,2-a]pyrazin-3-yl)methyl)piperazin-1-yl)nicotinate], the IC50 was 15.8 to 39.8 nM. In the case of `COc1cc(-c2ccc(N3CCN(Cc4cnc5c(c4)NC(=O)[C@@H]4CCCCN54)CC3)cc2)ccn1` [Compound 144, (S)-3-((4-(4-(2-methoxypyridin-4-yl)phenyl)piperazin-1-yl)methyl)-7,8,9,10-tetrahydro-5H-dipyrido[1,2-a:3′,2′-e]pyrazin-6(6aH)-one], the IC50 is reported as ≥ 50.1 nM. With `Nc1cccc(-c2ccc(N3CCN(Cc4cnc5c(c4)NC(=O)[C@@H]4CCCCN54)CC3)cc2)n1` [Compound 145, (S)-3-((4-(4-(6-aminopyridin-2-yl)phenyl)piperazin-1-yl)methyl)-7,8,9,10-tetrahydro-5H-dipyrido[1,2-a:3′,2′-e]pyrazin-6(6aH)-one] the IC50 was ≥ 50.1 nM. `O=C1Nc2cc(CN3CCN(c4ccc(-c5ccsc5)cc4)CC3)cnc2N2CCCC[C@@H]12` [Compound 146, (S)-3-((4-(4-(thiophen-3-yl)phenyl)piperazin-1-yl)methyl)-7,8,9,10-tetrahydro-5H-dipyrido[1,2-a:3′,2′-e]pyrazin-6(6aH)-one] showed an IC50 of 15.8 to 39.8 nM. In the case of `O=C1Nc2cc(CN3CCN(c4ccc(-c5cccs5)cc4)CC3)cnc2N2CCCC[C@@H]12` [Compound 147, (S)-3-((4-(4-(thiophen-2-yl)phenyl)piperazin-1-yl)methyl)-7,8,9,10-tetrahydro-5H-dipyrido[1,2-a:3′,2′-e]pyrazin-6(6aH)-one], the IC50 is reported as ≥ 50.1 nM. `O=C1Nc2cc(CN3CCN(c4ccc(-c5ccncc5)cc4)CC3)cnc2N2CCCC[C@@H]12` [Compound 148, (S)-3-((4-(4-(pyridin-4-yl)phenyl)piperazin-1-yl)methyl)-7,8,9,10-tetrahydro-5H-dipyrido[1,2-a:3′,2′-e]pyrazin-6(6aH)-one] gave an IC50 of 15.8 to 39.8 nM. With `O=C1Nc2cc(CN3CCN(c4ccc(-c5ccccc5)cc4)CC3)cnc2N2CCCC[C@@H]12` [Compound 149, (S)-3-((4-(biphenyl-4-yl)piperazin-1-yl)methyl)-7,8,9,10-tetrahydro-5H-dipyrido[1,2-a:3′,2′-e]pyrazin-6(6aH)-one] the IC50 was ≥ 50.1 nM. With `COc1ccc(-c2ccc(N3CCN(Cc4cnc5c(c4)NC(=O)[C@@H]4CCCCN54)CC3)cc2)cn1` [Compound 150, (S)-3-((4-(4-(6-methoxypyridin-3-yl)phenyl)piperazin-1-yl)methyl)-7,8,9,10-tetrahydro-5H-dipyrido[1,2-a:3′,2′-e]pyrazin-6(6aH)-one] the IC50 was ≥ 50.1 nM. For `O=C1Nc2cc(CN3CCN(c4ccc(-c5cncnc5)cc4)CC3)cnc2N2CCCC[C@@H]12` [Compound 151, (S)-3-((4-(4-(pyrimidin-5-yl)phenyl)piperazin-1-yl)methyl)-7,8,9,10-tetrahydro-5H-dipyrido[1,2-a:3′,2′-e]pyrazin-6(6aH)-one], the IC50 was ≥ 50.1 nM. With `COc1ncc(-c2ccc(N3CCN(Cc4cnc5c(c4)NC(=O)[C@@H]4CCCCN54)CC3)cc2)cn1` [Compound 152, (S)-3-((4-(4-(2-methoxypyrimidin-5-yl)phenyl)piperazin-1-yl)methyl)-7,8,9,10-tetrahydro-5H-dipyrido[1,2-a:3′,2′-e]pyrazin-6(6aH)-one] the IC50 was 15.8 to 39.8 nM. For `COc1cnccc1-c1ccc(N2CCN(Cc3cnc4c(c3)NC(=O)[C@@H]3CCCCN43)CC2)cc1` [Compound 153, (S)-3-((4-(4-(3-methoxypyridin-4-yl)phenyl)piperazin-1-yl)methyl)-7,8,9,10-tetrahydro-5H-dipyrido[1,2-a:3′,2′-e]pyrazin-6(6aH)-one], the IC50 was ≥ 50.1 nM. In the case of `Cc1ccccc1-c1ccc(N2CCN(Cc3cnc4c(c3)NC(=O)[C@@H]3CCCCN43)CC2)cc1` [Compound 154, (S)-3-((4-(2′-methylbiphenyl-4-yl)piperazin-1-yl)methyl)-7,8,9,10-tetrahydro-5H-dipyrido[1,2-a:3′,2′-e]pyrazin-6(6aH)-one], the IC50 is reported as ≥ 50.1 nM. For `Cc1cnccc1-c1ccc(N2CCN(Cc3cnc4c(c3)NC(=O)[C@@H]3CCCCN43)CC2)cc1` [Compound 155, (S)-3-((4-(4-(3-methylpyridin-4-yl)phenyl)piperazin-1-yl)methyl)-7,8,9,10-tetrahydro-5H-dipyrido[1,2-a:3′,2′-e]pyrazin-6(6aH)-one], the IC50 was ≥ 50.1 nM. In the case of `COc1cccc(-c2ccc(N3CCN(Cc4cnc5c(c4)NC(=O)[C@@H]4CCCCN54)CC3)cc2)n1` [Compound 156, (S)-3-((4-(4-(6-methoxypyridin-2-yl)phenyl)piperazin-1-yl)methyl)-7,8,9,10-tetrahydro-5H-dipyrido[1,2-a:3′,2′-e]pyrazin-6(6aH)-one], the IC50 is reported as ≥ 50.1 nM. For `O=C1Nc2cc(CN3CCN(c4ccc(-c5ccccn5)cc4)CC3)cnc2N2CCCC[C@@H]12` [Compound 157, (S)-3-((4-(4-(pyridin-2-yl)phenyl)piperazin-1-yl)methyl)-7,8,9,10-tetrahydro-5H-dipyrido[1,2-a:3′,2′-e]pyrazin-6(6aH)-one], the IC50 was ≥ 50.1 nM. `O=C1Nc2cc(CN3CCN(c4ccc(-c5cccnc5)cc4)CC3)cnc2N2CCCC[C@@H]12` [Compound 158, (S)-3-((4-(4-(pyridin-3-yl)phenyl)piperazin-1-yl)methyl)-7,8,9,10-tetrahydro-5H-dipyrido[1,2-a:3′,2′-e]pyrazin-6(6aH)-one] was tested, and the IC50 was ≥ 50.1 nM. For `Cc1ccc(-c2ccc(N3CCN(Cc4cnc5c(c4)NC(=O)[C@@H]4CCCCN54)CC3)cc2)s1` [Compound 159, (S)-3-((4-(4-(5-methylthiophen-2-yl)phenyl)piperazin-1-yl)methyl)-7,8,9,10-tetrahydro-5H-dipyrido[1,2-a:3′,2′-e]pyrazin-6(6aH)-one], the IC50 was ≥ 50.1 nM. In the case of `O=C1Nc2cc(CN3CCN(c4ccc(-c5ccccc5CO)cc4)CC3)cnc2N2CCCC[C@@H]12` [Compound 160, (S)-3-((4-(2′-(hydroxymethyl)biphenyl-4-yl)piperazin-1-yl)methyl)-7,8,9,10-tetrahydro-5H-dipyrido[1,2-a:3′,2′-e]pyrazin-6(6aH)-one], the IC50 is reported as ≥ 50.1 nM.
